Reference: ChEMBL document CHEMBL3593192, “Synthesis and biological evaluation of novel histone deacetylases inhibitors with nitric oxide releasing activity” (Bioorg Med Chem, 2015)
The source made the active and inactive calls. The rule behind the calls is not given here.

How the values were obtained:
cells [1] = type: functional, cell-based; conditions: Homo sapiens, KG-1, 48 h
Description: Cytotoxicity against human KG1 cells assessed as inhibition of cell proliferation after 48 hrs by MTT assay

B16 = assay: cells; type: functional, cell-based; conditions: Mus musculus, B16, 48 h
Description: Cytotoxicity against mouse B16 cells assessed as inhibition of cell proliferation after 48 hrs by MTT assay

HeLa = assay: cells; type: functional, cell-based; conditions: Homo sapiens, 48 h
Description: Cytotoxicity against human HeLa cells assessed as inhibition of cell proliferation after 48 hrs by MTT assay

HCT-116 [2] = assay: Cytotoxicity against nitric oxide scavenger hemoglobin-treated human HCT116 cells assessed as inhibition of cell proliferation at 2 uM after 24 hrs by MTT assay; type: functional, cell-based
HCT-116 [3] = assay: cells; type: functional, cell-based; conditions: Homo sapiens, HCT-116, 48 h
U-937 = assay: Cytotoxicity against human U937 cells assessed as inhibition of cell proliferation after 48 hrs by MTT assay; type: functional, cell-based; conditions: U-937, 48 h
cells [4] = type: functional, cell-based, ES2; conditions: Homo sapiens, ES-2, 48 h
Description: Cytotoxicity against human ES2 cells assessed as inhibition of cell proliferation after 48 hrs by MTT assay

HCT-116 [5] = assay: Induction of nitric oxide production in human HCT116 cells at 100 uM after 5 hrs by Griess assay; type: functional, cell-based
HEL = assay: cells; type: functional, cell-based; conditions: Homo sapiens, 48 h
Description: Cytotoxicity against HEL cells assessed as inhibition of cell proliferation after 48 hrs by MTT assay

[6] = target: Histone deacetylase (HDAC1 and HDAC2) (Homo sapiens, UniProt Q13547+Q92769); assay: Inhibition of HDAC1/2 in human HeLa cells using Boc-Lys (acetyl)-AMC as substrate preincubated for 30 mins followed by substrate addition measured after 30 mins by fluorescence assay; type: cell-based
PC-3 = assay: cells; type: functional, cell-based; conditions: Homo sapiens, PC-3, 48 h
Description: Cytotoxicity against human PC3 cells assessed as inhibition of cell proliferation after 48 hrs by MTT assay

HCT-116 [7] = assay: Cytotoxicity against human HCT116 cells assessed as inhibition of cell proliferation after 48 hrs by MTT assay in presence of SAHA; type: functional, cell-based; conditions: HCT-116, 48 h

Row | Structure (SMILES) | IC50 (cells [1]) [µM] | IC50 (B16) [µM] | IC50 (HeLa) [µM] | IC50 (HCT-116 [3]) [µM] | IC50 (cells [4]) [µM] | IC50 (HEL) [µM] | IC50 [6] [µM] | IC50 (PC-3) [µM] | inhibition (HCT-116 [2]) | IC50 (U-937) [µM] | Activity (HCT-116 [5]) | IC50 (HCT-116 [7]) [µM]
1 | O=C(CCCCCOC(=O)c1ccc2c(c1)no[n+]2[O-])NO | 3.69 | 30.2 | 17.3 | 3.36 | 20.6 | 11.6 | 0.437 | 12.4 |  | 33.4 | Active | 
2 | O=C(CCCCCOC(=O)c1cccc2c1no[n+]2[O-])NO | 12.4 | 27.9 | 42.1 | 2.81 | 66.3 | 3.74 | 0.017 | 16.9 |  | 21.6 | Active | 
3 | O=C(O)c1cccc2c1no[n+]2[O-] |  |  |  | 64 |  |  | > 1000 |  |  |  | Active | 8.52
4 | O=C(O)c1ccc2c(c1)no[n+]2[O-] |  |  |  | 55.8 |  |  | > 1000 |  |  |  | Active | 11.5
5 | O=C(CCCCCCCOC(=O)c1cccc2c1no[n+]2[O-])NO | 0.53 | > 80 | 34.2 | > 80 | > 80 | 12.1 | 0.1373 | > 80 |  | > 80 |  | 
6 | O=C(CCCCCCC(=O)Nc1ccccc1)NO [VORINOSTAT] |  |  |  |  |  |  |  |  |  | 4.82 |  | 
7 | O=C(CCCOC(=O)c1cccc2c1no[n+]2[O-])NO | 12.4 | > 80 | 72 | 16.2 | 73.8 | 6.6 | 6.8072 | 13.4 |  | 53.9 |  | 

Further lines, with some results ahead:

Row | IC50 (cells [1]) [µM] | IC50 (B16) [µM] | IC50 (HeLa) [µM] | IC50 (HCT-116 [3]) [µM] | IC50 (cells [4]) [µM] | IC50 (HEL) [µM] | IC50 [6] [µM] | IC50 (PC-3) [µM] | Structure (SMILES) | inhibition (HCT-116 [2]) | IC50 (U-937) [µM] | Activity (HCT-116 [5]) | IC50 (HCT-116 [7]) [µM]
8 | 2.98 | 18.2 | 27.2 | 1.09 | 21.2 | 3.71 | 0.0128 | 9.37 | O=C(CCCCCCOC(=O)c1cccc2c1no[n+]2[O-])NO | inactive | 34.6 | Active | 
9 | 0.37 | 4.97 | 9.18 | 1.09 | 5.07 | 1.26 | 0.0184 | 0.95 | O=C(CCCCCCOC(=O)c1ccc2c(c1)no[n+]2[O-])NO | inactive | 12.4 | Active | 
10 | 8.19 | 24 | 15.9 | 2.63 | 25 | 1.21 | 2.207 | 12.7 | O=C(CCCCOC(=O)c1ccc2c(c1)no[n+]2[O-])NO |  | 19.9 |  | 
11 | 4.02 | 22.2 | 17 | 2.06 | 27.1 | 2.09 | 5.5697 | 6.58 | O=C(CCCOC(=O)c1ccc2c(c1)no[n+]2[O-])NO |  | 13 |  | 
12 | 5.21 | 7.99 | 5.31 | 2.29 | 9.23 | 1.5 | 0.1804 | 1.39 | O=C(CCCCCCCOC(=O)c1ccc2c(c1)no[n+]2[O-])NO |  | 11.9 | Active | 
13 | 6.69 | 30.5 | 20.2 | 2.73 | 44.4 | 3.14 | 0.2576 | 14.2 | O=C(CCCCOC(=O)c1cccc2c1no[n+]2[O-])NO |  | 11.3 |  | 
